Measured values: ChEMBL document CHEMBL1201862, “PubChem BioAssay data set” (2004)
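Grown in 96-well plates, cells were treated for 48 hours with each compound at five concentrations. Insufficient inhibition: endpoint recorded as highest concentration tested. GI50 = concentration required for 50% inhibition of growth.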 Calls of active or inactive are those of the source. Rule as the data show it: active = GI50 up to about 1.1 µM and inactive = higher.

What was measured:
Test in all cases: NCI-60 cell line screen, 48 h
HCT-15 = test system: HCT-15
UO-31 = test system: UO-31
MOLT-4 = test system: MOLT-4
HOP-62 = test system: HOP-62
HL-60 = test system: HL-60
SR = test system: SR
RXF 393 = test system: RXF 393
A549 = test system: A549
HOP-92 = test system: HOP-92
RPMI-8226 = test system: RPMI-8226
Malme-3M = test system: Malme-3M
SW-620 = test system: SW-620
OVCAR-3 = test system: OVCAR-3
786-0 = test system: 786-0
OVCAR-5 = test system: OVCAR-5
SF-539 = test system: SF-539
IGROV-1 = test system: IGROV-1
DLD-1 = test system: DLD-1
NCI/ADR-RES = test system: NCI/ADR-RES
MDA-MB-435 = test system: MDA-MB-435

Measured: GI50

O=C(CSc1c2ccccc2nc2ccccc12)Nc1ccccc1-c1ccccc1NC(=O)CSc1c2ccccc2nc2ccccc12
20.2 µM: HCT-15
inactive: UO-31 34.2 µM | MOLT-4 5.27 µM | HOP-62 31.8 µM | HL-60 6.17 µM | SR 11.1 µM | RXF 393 21.5 µM | A549 13.3 µM | HOP-92 30.8 µM | RPMI-8226 4.46 µM | Malme-3M 30.8 µM | SW-620 28.6 µM | OVCAR-3 16.4 µM | 786-0 6.76 µM | OVCAR-5 56.6 µM | SF-539 14.4 µM | IGROV-1 18.4 µM | DLD-1 13.9 µM

Cc1cccc(C(C)C)c1NC(=O)CC1C(=O)Nc2ccccc2S1(=O)=O (stereo not given)
inactive: UO-31 13.5 µM | HOP-62 54.6 µM | HL-60 5.28 µM | SR 1.48 µM | RXF 393 10.2 µM | A549 16.8 µM | HOP-92 11.8 µM | RPMI-8226 3.14 µM | Malme-3M 16.3 µM | SW-620 7.03 µM | OVCAR-3 12.2 µM | 786-0 13.9 µM | OVCAR-5 39.7 µM | SF-539 5.77 µM | IGROV-1 22.5 µM | DLD-1 9.25 µM
active: MOLT-4 0.408 µM
5.11 µM: HCT-15

COc1ccccc1NC(=O)C(=O)C(c1cnc2ccc([N+](=O)[O-])cc2n1)[N+](=O)[O-] (stereo not given)
inactive: UO-31 78 µM | MOLT-4 32.8 µM | HOP-62 > 100 µM | HL-60 19.5 µM | SR 45.6 µM | RXF 393 > 100 µM | A549 > 100 µM | HOP-92 > 100 µM | RPMI-8226 25.2 µM | Malme-3M > 100 µM | SW-620 > 100 µM | 786-0 > 100 µM | OVCAR-5 > 100 µM | SF-539 > 100 µM | IGROV-1 > 100 µM | DLD-1 > 100 µM
> 100 µM: HCT-15

O=C(Cc1ccccc1)C(c1ccccc1)S(=O)(=O)c1ccccc1 (stereo not given)
inactive: UO-31 41.2 µM | MOLT-4 > 100 µM | HOP-62 > 100 µM | HL-60 > 100 µM | SR 69.3 µM | RXF 393 67 µM | A549 59.4 µM | HOP-92 81.5 µM | RPMI-8226 > 100 µM | Malme-3M > 100 µM | SW-620 > 100 µM | OVCAR-3 > 100 µM | 786-0 > 100 µM | OVCAR-5 > 100 µM | SF-539 > 100 µM | IGROV-1 > 100 µM | DLD-1 > 100 µM
83.6 µM: HCT-15

COC(=O)CC(=O)C[P+](c1ccccc1)(c1ccccc1)c1ccccc1
inactive: MOLT-4 74 µM | HOP-62 > 218 µM | HL-60 48.9 µM | SR 58.1 µM | RXF 393 > 218 µM | A549 197 µM | HOP-92 102 µM | RPMI-8226 63.5 µM | Malme-3M 192 µM | SW-620 121 µM | OVCAR-3 69.7 µM | 786-0 > 218 µM | SF-539 197 µM | IGROV-1 > 218 µM | DLD-1 194 µM
56.5 µM: HCT-15

CCOC(=O)NN1C(=O)C(=P(c2ccccc2)(c2ccccc2)c2ccccc2)C(C(=O)OCC)=C1C
inactive: UO-31 > 100 µM | MOLT-4 > 100 µM | HOP-62 > 100 µM | HL-60 > 100 µM | SR > 100 µM | RXF 393 > 100 µM | A549 > 100 µM | HOP-92 > 100 µM | RPMI-8226 > 100 µM | Malme-3M > 100 µM | SW-620 > 100 µM | OVCAR-3 > 100 µM | 786-0 > 100 µM | OVCAR-5 > 100 µM | SF-539 > 100 µM | IGROV-1 > 100 µM | DLD-1 > 100 µM
> 100 µM: HCT-15

Cc1cc2nc3ccc(N(C)C)cc3[s+]c2cc1N [TOLONIUM CHLORIDE]
inactive: UO-31 11 µM | MOLT-4 2.69 µM | HOP-62 8.97 µM | SR 3.67 µM | RXF 393 7.52 µM | A549 3.22 µM | HOP-92 13.4 µM | RPMI-8226 1.48 µM | Malme-3M 1.93 µM | SW-620 2.86 µM | NCI/ADR-RES 2.26 µM | 786-0 5.22 µM | OVCAR-5 9.73 µM | SF-539 2.63 µM | IGROV-1 6.22 µM | DLD-1 6.38 µM
active: HL-60 0.383 µM | OVCAR-3 0.995 µM | MDA-MB-435 0.977 µM
2.99 µM: HCT-15
